Measured values reported in BigSolDB 2.1.

C#C[C@]1(O)C=C[C@H]2[C@@H]3CCC4=CC(=O)CC[C@@H]4[C@H]3CC[C@@]21CC
solubility (mole fraction)
Conditions	283.15 K	288.15 K	293.15 K	298.15 K	303.15 K	308.15 K	313.15 K	318.15 K	323.15 K
in 2-butanone	0.00956	0.0114	0.0134	0.0159	0.0188	0.0221	0.0258	0.0302	0.0352
in acetone	0.00379	0.00499	0.00654	0.00862	0.0113	0.0147	0.0189	0.024	0.0302
in acetonitrile	0.00262	0.00306	0.00358	0.00418	0.00487	0.00566	0.00655	0.00754	0.00868
in ethanol	0.00314	0.00387	0.00473	0.00577	0.00701	0.0085	0.0102	0.0123	0.0147
in ethyl acetate	0.0146	0.0161	0.018	0.0194	0.0211	0.0228	0.0247	0.0264	0.0282
in isopropanol	0.00155	0.00199	0.0026	0.00328	0.00413	0.00519	0.00648	0.00809	0.0101
in isopropyl acetate	0.0174	0.0213	0.0259	0.031	0.0371	0.044	0.052	0.061	0.0711
in methanol	0.00457	0.0055	0.00655	0.00777	0.00917	0.0108	0.0125	0.0145	0.0168
in n-butanol	0.00395	0.00465	0.00549	0.00642	0.0075	0.00875	0.0102	0.0118	0.0136
in n-propanol	0.00376	0.00461	0.0056	0.00678	0.00817	0.00979	0.0117	0.014	0.0166
in water	6.83e-06	7.69e-06	8.93e-06	1.06e-05	1.23e-05	1.42e-05	1.62e-05	1.87e-05	2.16e-05
